Experimental data reported in ChEMBL document CHEMBL3822444, “Synthesis and cytotoxic evaluation of novel indenoisoquinoline-substituted triazole hybrids” (Bioorg Med Chem Lett, 2016).

Columns and labels:
KB = experiment: Cytotoxicity against human KB cells assessed as growth inhibition measured after 3 days by MTT assay; assay type: functional, cell-based; conditions: 72 h
HepG2 = experiment: Cytotoxicity against human HepG2 cells assessed as growth inhibition measured after 3 days by MTT assay; assay type: functional, cell-based; conditions: HepG2, 72 h

SMILES | IC50 (KB) | IC50 (HepG2)
O=C1c2ccccc2-c2c1c1ccccc1c(=O)n2CC(O)Cn1cc(CO)nn1 (stereo unspecified) | 2.86 µM | 0.74 µM
O=C1c2ccccc2-c2c1c1ccccc1c(=O)n2Cc1cn(CC(O)Cn2c3c(c4ccccc4c2=O)C(=O)c2ccccc2-3)nn1 (stereo unspecified) | 2.89 µM | 2.29 µM
Cc1ccc(NC(=O)c2ccc(Cn3cc(Cn4c5c(c6ccccc6c4=O)C(=O)c4ccccc4-5)nn3)cc2)cc1Nc1nccc(-c2cccnc2)n1 | 1.56 µM | 2.33 µM
Cc1cn([C@H]2C[C@H](n3cc(COC(=O)[C@H](Cc4ccccc4)n4c5c(c6ccccc6c4=O)C(=O)c4ccccc4-5)nn3)[C@@H](CO)O2)c(=O)[nH]c1=O | 0.49 µM | 0.48 µM
O=C(OCc1cn(CC(O)Cn2c3c(c4ccccc4c2=O)C(=O)c2ccccc2-3)nn1)c1ccc(Cl)cc1 (stereo unspecified) | 10.5 µM | 9.75 µM
Cc1ccc(S(=O)(=O)Nc2cccc(-c3cn(CC(O)Cn4c5c(c6ccccc6c4=O)C(=O)c4ccccc4-5)nn3)c2)cc1 (stereo unspecified) | 89.9 µM | 69.8 µM
CC(=O)OCc1cn(CC(Cn2c3c(c4ccccc4c2=O)C(=O)c2ccccc2-3)OC(C)=O)nn1 (stereo unspecified) | 18.6 µM | 19 µM
[N-]=[N+]=NCC(O)Cn1c2c(c3ccccc3c1=O)C(=O)c1ccccc1-2 (stereo unspecified) | 42 µM | 45 µM
CC(=O)NCc1cn(CC(O)Cn2c3c(c4ccccc4c2=O)C(=O)c2ccccc2-3)nn1 (stereo unspecified) | 14.1 µM | 9.04 µM
O=C1c2ccccc2-c2c1c1ccccc1c(=O)n2CC(O)Cn1cc(CN2CCOCC2)nn1 (stereo unspecified) | 1.56 µM | 10.2 µM
NCc1cn(CC(O)Cn2c3c(c4ccccc4c2=O)C(=O)c2ccccc2-3)nn1 (stereo unspecified) | 50 µM | 195 µM
CC(=O)Nc1cccc(-c2cn(CC(Cn3c4c(c5ccccc5c3=O)C(=O)c3ccccc3-4)OC(C)=O)nn2)c1 (stereo unspecified) | > 234 µM | > 234 µM
Cc1cn([C@H]2C[C@H](n3cc(COC(=O)Cn4c5c(c6ccccc6c4=O)C(=O)c4ccccc4-5)nn3)[C@@H](CO)O2)c(=O)[nH]c1=O | 26.2 µM | 26.2 µM
O=C(NCc1cn(CC(O)Cn2c3c(c4ccccc4c2=O)C(=O)c2ccccc2-3)nn1)c1ccc(Br)cc1 (stereo unspecified) | 56.7 µM | 43.8 µM
O=C1c2ccccc2-c2c1c1ccccc1c(=O)n2CC(O)Cn1cc(CBr)nn1 (stereo unspecified) | 0.79 µM | 0.76 µM
O=C(OCc1cn(CC(O)Cn2c3c(c4ccccc4c2=O)C(=O)c2ccccc2-3)nn1)c1ccc(Br)cc1 (stereo unspecified) | 6.28 µM | 4.27 µM
Nc1cccc(-c2cn(CC(O)Cn3c4c(c5ccccc5c3=O)C(=O)c3ccccc3-4)nn2)c1 (stereo unspecified) | 15.3 µM | 32 µM
Cc1ccc(S(=O)(=O)NCc2cn(CC(O)Cn3c4c(c5ccccc5c3=O)C(=O)c3ccccc3-4)nn2)cc1 (stereo unspecified) | 115 µM | 115 µM
Cc1cn([C@H]2C[C@H](n3cc(Cn4c5c(c6ccccc6c4=O)C(=O)c4ccccc4-5)nn3)[C@@H](CO)O2)c(=O)[nH]c1=O | 0.79 µM | 0.64 µM
Cc1cn([C@H]2C[C@H](n3cc(COC(=O)[C@H](CC(C)C)n4c5c(c6ccccc6c4=O)C(=O)c4ccccc4-5)nn3)[C@@H](CO)O2)c(=O)[nH]c1=O | 0.75 µM | 2.25 µM
COc1ccc(C(=O)OCc2cn(CC(O)Cn3c4c(c5ccccc5c3=O)C(=O)c3ccccc3-4)nn2)cc1 (stereo unspecified) | 11.2 µM | 11.9 µM
Cc1cn([C@H]2C[C@H](n3cc(COC(=O)[C@H](CO)n4c5c(c6ccccc6c4=O)C(=O)c4ccccc4-5)nn3)[C@@H](CO)O2)c(=O)[nH]c1=O | 0.35 µM | 1.18 µM
CC(C)C(=O)NCc1cn(CC(O)Cn2c3c(c4ccccc4c2=O)C(=O)c2ccccc2-3)nn1 (stereo unspecified) | 123 µM | 22.1 µM
Cc1cn([C@@H]2C[C@@H](n3cc(COC(=O)[C@@H](Cc4c[nH]c5ccccc45)n4c5c(c6ccccc6c4=O)C(=O)c4ccccc4-5)nn3)[C@H](CO)O2)c(=O)[nH]c1=O (single isomer, unassigned) | 21.6 µM | 84.5 µM
Cc1c2ccncc2c(C)c2c1[nH]c1ccccc12 [ELLIPTECINE] | 1.26 µM | 1.46 µM
Cc1cn([C@H]2C[C@H](N=[N+]=[N-])[C@@H](CO)O2)c(=O)[nH]c1=O [ZIDOVUDINE] |  | > 479 µM
